ChEMBL document CHEMBL1138939, “Privileged structure based ligands for melanocortin receptors--4,4-disubstituted piperidine derivatives” (Bioorg Med Chem Lett, 2006)

target: Melanocortin receptor 4 (Homo sapiens, UniProt P32245); assay: Displacement of [125I]NDP-alpha-MSH from human MC4 receptor transfected in HEK293 cells; assay type: cell-based
Sequence (P32245 whole entry): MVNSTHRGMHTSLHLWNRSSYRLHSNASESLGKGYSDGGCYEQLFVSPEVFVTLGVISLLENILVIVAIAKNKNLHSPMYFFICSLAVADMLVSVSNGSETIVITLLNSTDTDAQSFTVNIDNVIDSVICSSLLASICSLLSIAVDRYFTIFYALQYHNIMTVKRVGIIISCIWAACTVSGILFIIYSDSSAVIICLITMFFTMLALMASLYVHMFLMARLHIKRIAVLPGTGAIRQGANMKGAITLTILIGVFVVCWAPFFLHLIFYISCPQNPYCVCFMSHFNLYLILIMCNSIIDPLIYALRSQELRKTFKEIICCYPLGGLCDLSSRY

SMILES	Ki [nM]
CC(C)CC1(N2CCN(C(=O)[C@@H](Cc3ccc(Cl)cc3)NC(=O)CC3NCc4ccccc43)CC2)CCN(C(=O)C(C)C)CC1 (some centres not stated)	101
CC(C)CC1(N2CCN(C(=O)[C@@H](Cc3ccc(Cl)cc3)NC(=O)CC3NCc4ccccc43)CC2)CCSCC1 (some centres not stated)	68.4
CC(C)C1(N2CCN(C(=O)[C@@H](Cc3ccc(Cl)cc3)NC(=O)CC3NCc4ccccc43)CC2)CCN(C)CC1 (some centres not stated)	41.8
CN1CCC(Cc2ccccc2)(N2CCN(C(=O)[C@@H](Cc3ccc(Cl)cc3)NC(=O)CC3NCc4ccccc43)CC2)CC1 (some centres not stated)	43.9
CC(=O)N1CCC(CC(C)C)(N2CCN(C(=O)[C@@H](Cc3ccc(Cl)cc3)NC(=O)CC3NCc4ccccc43)CC2)CC1 (some centres not stated)	37.5
CC(C)CC1(N2CCN(C(=O)[C@@H](Cc3ccc(Cl)cc3)NC(=O)CC3NCc4ccccc43)CC2)CCCCC1 (some centres not stated)	46.9
CCC1(N2CCN(C(=O)[C@@H](Cc3ccc(Cl)cc3)NC(=O)CC3NCc4ccccc43)CC2)CCN(C)CC1 (some centres not stated)	370
CN1CCC(c2ccccc2)(N2CCN(C(=O)[C@@H](Cc3ccc(Cl)cc3)NC(=O)CC3NCc4ccccc43)CC2)CC1 (some centres not stated)	215
CC(C)CC1(N2CCN(C(=O)[C@@H](Cc3ccc(Cl)cc3)NC(=O)CC3NCc4ccccc43)CC2)CCOCC1 (some centres not stated)	31.4
CC(C)CC1(N2CCN(C(=O)[C@@H](Cc3ccc(Cl)cc3)NC(=O)CC3NCc4ccccc43)CC2)CCS(=O)(=O)CC1 (some centres not stated)	75.8
CCCCCCC1(N2CCN(C(=O)[C@@H](Cc3ccc(Cl)cc3)NC(=O)CC3NCc4ccccc43)CC2)CCN(C)CC1 (some centres not stated)	69.6

The next molecules have a lower Ki than those just listed; values first:

Ki [nM]	SMILES
12.7	CC(C)CC1(N2CCN(C(=O)[C@@H](Cc3ccc(Cl)cc3)NC(=O)CC3NCc4ccccc43)CC2)CCN(C)CC1 (some centres not stated)
5	CCN(CC)CC(CC1CCCCC1)N1CCN(C(=O)[C@@H](Cc2ccc(Cl)cc2)NC(=O)CC2NCc3ccccc32)CC1 (some centres not stated)
27.3	CC(C)CC1(N2CCN(C(=O)[C@@H](Cc3ccc(Cl)cc3)NC(=O)CC3NCc4ccccc43)CC2)CCN(S(C)(=O)=O)CC1 (some centres not stated)
6.8	CN1CCC(CC2CCCCC2)(N2CCN(C(=O)[C@@H](Cc3ccc(Cl)cc3)NC(=O)CC3NCc4ccccc43)CC2)CC1 (some centres not stated)
15.6	CCN1CCC(CC(C)C)(N2CCN(C(=O)[C@@H](Cc3ccc(Cl)cc3)NC(=O)CC3NCc4ccccc43)CC2)CC1 (some centres not stated)
12.9	CC(C)CC1(N2CCN(C(=O)[C@@H](Cc3ccc(Cl)cc3)NC(=O)CC3NCc4ccccc43)CC2)CCN(C(C)C)CC1 (some centres not stated)
